{"source": "paper PMC12171682", "about": "“Saarvienin A—A Novel Glycopeptide with Potent Activity against Drug‐Resistant Bacteria” (Angewandte Chemie (International Ed. in English), 2025)", "key": {"[1]": {"test_system": "E. faecalis DSM 12956 (VRE, vanB positive)", "conditions": "broth microdilution, cation-adjusted Mueller-Hinton Broth II, ~4 × 10⁵ CFU/mL, 37 °C, 24 h; mean of three independent biological replicates, each in technical triplicate"}, "[2]": {"test_system": "S. aureus Mu50 (MRSA/VISA)", "conditions": "broth microdilution, cation-adjusted Mueller-Hinton Broth II, ~4 × 10⁵ CFU/mL, 37 °C, 24 h; mean of three independent biological replicates, each in technical triplicate"}, "[3]": {"test_system": "E. coli WO153 (AB1157, recJ asmB1, ΔtolC)", "conditions": "broth microdilution, cation-adjusted Mueller-Hinton Broth II, ~4 × 10⁵ CFU/mL, 37 °C, 24 h; mean of three independent biological replicates, each in technical triplicate"}, "[4]": {"test_system": "M. tuberculosis H37Ra ATCC 25177"}, "E. coli K12 ΔacrB": {"test_system": "E. coli K12 ΔacrB", "conditions": "broth microdilution, cation-adjusted Mueller-Hinton Broth II, ~4 × 10⁵ CFU/mL, 37 °C, 24 h; mean of three independent biological replicates, each in technical triplicate"}, "E. coli K12 ΔtolC": {"test_system": "E. coli K12 ΔtolC", "conditions": "broth microdilution, cation-adjusted Mueller-Hinton Broth II, 37 °C, 24 h, mean of three independent biological replicates, each in technical triplicate"}, "S. aureus HG001‐DRSA": {"test_system": "S. aureus HG001‐DRSA", "conditions": "daptomycin-resistant mutant of HG001; broth microdilution, cation-adjusted Mueller-Hinton Broth II, ~4 × 10⁵ CFU/mL, 37 °C, 24 h; mean of three independent biological replicates, each in technical triplicate"}, "S. aureus N315 (MRSA)": {"test_system": "S. aureus N315 (MRSA)", "conditions": "broth microdilution, cation-adjusted Mueller-Hinton Broth II, ~4 × 10⁵ CFU/mL, 37 °C, 24 h; mean of three independent biological replicates, each in technical triplicate"}, "E. faecalis ATCC 29212": {"test_system": "E. faecalis ATCC 29212", "conditions": "broth microdilution, 37 °C, 24 h"}, "[5]": {"test_system": "S. aureus DSM 11822 (MDR)", "conditions": "broth microdilution, cation-adjusted Mueller-Hinton Broth II, ~4 × 10⁵ CFU/mL, 37 °C, 24 h; mean of three independent biological replicates, each in technical triplicate"}, "[6]": {"test_system": "vancomycin‐resistant E. faecium clinical isolates with reduced susceptibility to daptomycin (n = 26)", "conditions": "broth microdilution, MHB II, daptomycin with 50 µg/mL Ca2+, mean of two independent experiments"}, "[7]": {"conditions": "26 VRE E. faecium clinical isolates"}}, "note": "Where two headings read alike, the source gives them in different places.", "data": [{"smiles": "CN[C@H](CC(C)C)C(=O)N[C@H]1C(=O)N[C@@H](CC(N)=O)C(=O)N[C@H]2C(=O)N[C@H]3C(=O)N[C@H](C(=O)N[C@H](C(=O)O)c4cc(O)cc(O)c4-c4cc3ccc4O)[C@H](O)c3ccc(c(Cl)c3)Oc3cc2cc(c3O[C@@H]2O[C@H](CO)[C@@H](O)[C@H](O)[C@H]2O[C@H]2C[C@](C)(N)[C@H](O)[C@H](C)O2)Oc2ccc(cc2Cl)[C@H]1O", "note": "[Vancomycin, vancomycin]", "values": [{"measurement": "MIC, E. faecalis DSM 12956 (VRE, vanB positive)", "setting": "[1]", "result": 16, "unit": "mg/L"}, {"measurement": "MIC, S. aureus Mu50 (MRSA/VISA)", "setting": "[2]", "result": 8, "unit": "mg/L"}, {"measurement": "MIC, E. coli WO153 (AB1157, recJ asmB1, ΔtolC)", "setting": "[3]", "result": 32, "unit": "mg/L"}, {"measurement": "MIC, M. tuberculosis H37Ra ATCC 25177", "setting": "[4]", "result": 64, "unit": "mg/L"}, {"measurement": "MIC, E. coli K12 ΔacrB", "setting": "E. coli K12 ΔacrB", "result": ">64", "unit": "mg/L"}, {"measurement": "MIC, E. coli K12 ΔtolC (tolC‐deficient) + PMBN", "setting": "E. coli K12 ΔtolC; co‐incubated with sub‐lethal concentrations of polymyxin B nonapeptide (PMBN)", "result": ">64", "unit": "mg/L"}, {"measurement": "MIC, E. coli K12 ΔtolC", "setting": "E. coli K12 ΔtolC; without PMBN, ~4 × 10⁵ CFU/mL", "result": ">64", "unit": "mg/L"}, {"measurement": "MIC, S. aureus HG001‐DRSA", "setting": "S. aureus HG001‐DRSA", "result": 4, "unit": "mg/L"}, {"measurement": "MIC, S. aureus N315 (MRSA)", "setting": "S. aureus N315 (MRSA)", "result": 2, "unit": "mg/L"}, {"measurement": "MIC, E. faecalis ATCC29212", "setting": "E. faecalis ATCC 29212; cation-adjusted Mueller-Hinton Broth II, ~4 × 10⁵ CFU/mL, mean of three independent biological replicates, each in technical triplicate", "result": 4, "unit": "mg/L"}, {"measurement": "MIC, E. faecalis ATCC29212", "setting": "E. faecalis ATCC 29212; reference strain in Table S5, MHB II, daptomycin with 50 µg/mL Ca2+, mean of two independent experiments", "result": 4, "unit": "mg/L"}, {"measurement": "MIC, S. aureus DSM 11822 (MDR)", "setting": "[5]", "result": 1, "unit": "mg/L"}, {"measurement": "MIC50", "setting": "[6]; [7]", "result": ">64", "unit": "mg/L"}, {"measurement": "MIC90", "setting": "[6]; [7]", "result": ">64", "unit": "mg/L"}, {"measurement": "MIC, Enterococcus faecium isolate 1", "setting": "[6]; clinical isolate 1, 37 °C, 24 h", "result": "> 64", "unit": "mg/L"}, {"measurement": "MIC, Enterococcus faecium isolate 2", "setting": "[6]; clinical isolate 2, 37 °C, 24 h", "result": "> 64", "unit": "mg/L"}, {"measurement": "MIC, Enterococcus faecium isolate 3", "setting": "[6]; clinical isolate 3, 37 °C, 24 h", "result": 64, "unit": "mg/L"}, {"measurement": "MIC, Enterococcus faecium isolate 4", "setting": "[6]; clinical isolate 4, 37 °C, 24 h", "result": "> 64", "unit": "mg/L"}, {"measurement": "MIC, Enterococcus faecium isolate 5", "setting": "[6]; clinical isolate 5, 37 °C, 24 h", "result": "> 64", "unit": "mg/L"}, {"measurement": "MIC, Enterococcus faecium isolate 6", "setting": "[6]; clinical isolate 6, 37 °C, 24 h", "result": "> 64", "unit": "mg/L"}, {"measurement": "MIC, Enterococcus faecium isolate 7", "setting": "[6]; clinical isolate 7, 37 °C, 24 h", "result": "> 64", "unit": "mg/L"}, {"measurement": "MIC, Enterococcus faecium isolate 8", "setting": "[6]; clinical isolate 8, 37 °C, 24 h", "result": "> 64", "unit": "mg/L"}, {"measurement": "MIC, Enterococcus faecium isolate 9", "setting": "[6]; clinical isolate 9, 37 °C, 24 h", "result": "> 64", "unit": "mg/L"}, {"measurement": "MIC, Enterococcus faecium isolate 10", "setting": "[6]; clinical isolate 10, 37 °C, 24 h", "result": "> 64", "unit": "mg/L"}, {"measurement": "MIC, Enterococcus faecium isolate 11", "setting": "[6]; clinical isolate 11, 37 °C, 24 h", "result": "> 64", "unit": "mg/L"}, {"measurement": "MIC, Enterococcus faecium isolate 12", "setting": "[6]; clinical isolate 12, 37 °C, 24 h", "result": "> 64", "unit": "mg/L"}, {"measurement": "MIC, Enterococcus faecium isolate 13", "setting": "[6]; clinical isolate 13, 37 °C, 24 h", "result": "> 64", "unit": "mg/L"}, {"measurement": "MIC, Enterococcus faecium isolate 14", "setting": "[6]; clinical isolate 14, 37 °C, 24 h", "result": "> 64", "unit": "mg/L"}, {"measurement": "MIC, Enterococcus faecium isolate 15", "setting": "[6]; clinical isolate 15, 37 °C, 24 h", "result": "> 64", "unit": "mg/L"}, {"measurement": "MIC, Enterococcus faecium isolate 16", "setting": "[6]; clinical isolate 16, 37 °C, 24 h", "result": "> 64", "unit": "mg/L"}, {"measurement": "MIC, Enterococcus faecium isolate 17", "setting": "[6]; clinical isolate 17, 37 °C, 24 h", "result": "> 64", "unit": "mg/L"}, {"measurement": "MIC, Enterococcus faecium isolate 18", "setting": "[6]; clinical isolate 18, 37 °C, 24 h", "result": "> 64", "unit": "mg/L"}, {"measurement": "MIC, Enterococcus faecium isolate 19", "setting": "[6]; clinical isolate 19, 37 °C, 24 h", "result": "> 64", "unit": "mg/L"}, {"measurement": "MIC, Enterococcus faecium isolate 20", "setting": "[6]; clinical isolate 20, 37 °C, 24 h", "result": "> 64", "unit": "mg/L"}, {"measurement": "MIC, Enterococcus faecium isolate 21", "setting": "[6]; clinical isolate 21, 37 °C, 24 h", "result": "> 64", "unit": "mg/L"}, {"measurement": "MIC, Enterococcus faecium isolate 22", "setting": "[6]; clinical isolate 22, 37 °C, 24 h", "result": "> 64", "unit": "mg/L"}, {"measurement": "MIC, Enterococcus faecium isolate 23", "setting": "[6]; clinical isolate 23, 37 °C, 24 h", "result": "> 64", "unit": "mg/L"}, {"measurement": "MIC, Enterococcus faecium isolate 24", "setting": "[6]; clinical isolate 24, 37 °C, 24 h", "result": "> 64", "unit": "mg/L"}, {"measurement": "MIC, Enterococcus faecium isolate 25", "setting": "[6]; clinical isolate 25, 37 °C, 24 h", "result": "> 64", "unit": "mg/L"}, {"measurement": "MIC, Enterococcus faecium isolate 26", "setting": "[6]; clinical isolate 26, 37 °C, 24 h", "result": "> 64", "unit": "mg/L"}]}]}
